Measurements taken from patent US12589156B2, “Benzimidazole and benzimidazolone based protac compounds for the targeted degradation of leucine rich repeat kinase 2 (LRRK2)” (Arvinas Operations, Inc., priority 2023, dated 2026).

Molecular target: T1, WT LRRK2 (Homo sapiens, UniProt Q5S007)
T1 construct: endogenous in cells; host or cells: HEK293 (endogenous LRRK2 gene knock-in tagged with HiBit; stably expressing CMV-driven firefly luciferase)
Experiment: LRRK2 HiBit degradation assay (Nano-Glo Dual Luciferase) in HEK293 cells with HiBit-tagged endogenous LRRK2
Format: cell-based
Source text: Biological Assays Exemplary Assay for Testing LRRK2 Degradation Driven by Exemplary Hetero-Bifunctional Compounds Designed to Target LRRK2
The assay measures the degradation of LRRK2 in cells where the C-terminus (3′) of the endogenous gene has been tagged with a HiBit sequence in HEK293 cells. The cells also express firefly lucisferase, expressed from a Cytomegalovirus promoter and introduced into the HiBit tagged cells and stably expressed. The Nano-Glo® Dual Luciferase Reporter Assay System (Promega™, Madison, WI) was utilized.
Day 1—Preparation of Compound and Assay Plates. Two sets of plates were prepared: a triplicate set for the HiBit assay in white 384-well plates and a triplicate set of plate in black 384-well plates for the Alamar Blue cell viability assay. Briefly, the growth media (DMEM+Glutamax-10% fetal bovine serum-1% Penicillin-Streptomicin) from two T128 flasks was aspirated from the flasks. Cells were washed with Dulbecco's Phosphate Buffered Saline (dPBS) and aspirated. Trypsin (3 mL per flask) was added and the flasks were incubated for 2-3 minutes.
Ten mL of OptiMEM—10% fetal bovine-1% penicillin-streptomycin (hereinafter, “OptiMEM media”) was added to the flask and the cells and transferred to a 50 ml conical tube. A cell count (25 ul of cell into Effendorf vial+25 ul of Trypan Blue Stain) was performed and the cell density adjusted to 15,000 cell/45 μl/well (3.33×10^5/mL) in OptiMEM media.
Forty-five microliters of the cell suspension (15,000 cells) was aliquoted to each well of the white 384-well plate. The plates incubated at room temperature for 10 minutes before being placed in the 37° C.+5% CO2 incubator overnight
Day 2—Compound Treatment. Exemplary compounds were prepared at a 1 mM starting concentration and 1:3 serial dilution for 11 points CRC prepared and stored in the freezer. The Master Compound Plate was thawed overnight at room temperature. DMSO (20 μL) was added into column 24 of the Master Compound Plate for negative control and 20 μL of 300 μM of Compound 4 in column 23 as positive control.
Intermediate Compound Plate with 4% DMSO in OptiMEM Media. DMSO was added to warm OptiMEM media to achieve a 4% DMSO solution (approximately 50 mL/plate). One-hundred microliters of the OptiMEM-4% DMSO was aliquoted to each well of 384-Well Deep Well Microplates.
The Master Compound Plate and the Intermediate Compound Plate were spun down.
One microliter of compound from the Master Compound Plate was transferred into the Intermediate plate (a 1:100 dilution). The diluted mixture was mixed and 5 μL transferred into the assay plate (a 1:10 dilution) for the final starting concentration of 1 μM. The Treated Assay plates were incubated for 24 hours at 37° C.+5% CO2. The Master Compound Plate was sealed and store at room temperature for a second run that was performed within a week.
One set of white assay plates was warmed to room temperature (45 minute).
The One Glo luciferase mixture was prepared. The media from white 384-well assay plates was aspirated. Twenty-five μL of the One Glo luciferase mixture was added to each well of the assay plates. The plates were incubated on the bench (room temperature) for 45 minutes, including 10 minutes of shaking at 700 rpm. The luminescence of each plate was read on a plate reader.
1:100 DLR substrate and 1:100 LgBiT Protein dilution were added to the Promega Stop and Glo buffer and mixed just before addition to assay plates. Twenty-five microliters of Stop and Glo mixture was added to each well. Assay plates incubated for at least 45 minutes, including 10 minutes of shaking at 700 rpm. The luminescence of each plate was read on a plate reader.
Analysis of LRRK2 HiBit Screening assays. As mentioned above, plates were run in triplicate and the assay repeated twice (total of 6 replicate for exemplary compounds). For each treatment, measurements were taken for firefly luciferase for cell number, cell viability (Alamar Blue), and Nanoluc for the LRRK2-HiBit quantification. […]

[1] = HEK293, Table 2, maximal degradation, HiBit-tagged LRRK2 in HEK293 cells, 24 hours treatment
[2] = Table 2, HiBit-tagged LRRK2 in HEK293 cells, 24 hours treatment, starting concentration 1 μM
[3] = HEK293, Table 3, comparison with direct comparators, maximal degradation
[4] = Table 3, comparison with direct comparators, HiBit-tagged LRRK2 in HEK293 cells, 24 hours treatment

T1 sequence (Q5S007 whole entry): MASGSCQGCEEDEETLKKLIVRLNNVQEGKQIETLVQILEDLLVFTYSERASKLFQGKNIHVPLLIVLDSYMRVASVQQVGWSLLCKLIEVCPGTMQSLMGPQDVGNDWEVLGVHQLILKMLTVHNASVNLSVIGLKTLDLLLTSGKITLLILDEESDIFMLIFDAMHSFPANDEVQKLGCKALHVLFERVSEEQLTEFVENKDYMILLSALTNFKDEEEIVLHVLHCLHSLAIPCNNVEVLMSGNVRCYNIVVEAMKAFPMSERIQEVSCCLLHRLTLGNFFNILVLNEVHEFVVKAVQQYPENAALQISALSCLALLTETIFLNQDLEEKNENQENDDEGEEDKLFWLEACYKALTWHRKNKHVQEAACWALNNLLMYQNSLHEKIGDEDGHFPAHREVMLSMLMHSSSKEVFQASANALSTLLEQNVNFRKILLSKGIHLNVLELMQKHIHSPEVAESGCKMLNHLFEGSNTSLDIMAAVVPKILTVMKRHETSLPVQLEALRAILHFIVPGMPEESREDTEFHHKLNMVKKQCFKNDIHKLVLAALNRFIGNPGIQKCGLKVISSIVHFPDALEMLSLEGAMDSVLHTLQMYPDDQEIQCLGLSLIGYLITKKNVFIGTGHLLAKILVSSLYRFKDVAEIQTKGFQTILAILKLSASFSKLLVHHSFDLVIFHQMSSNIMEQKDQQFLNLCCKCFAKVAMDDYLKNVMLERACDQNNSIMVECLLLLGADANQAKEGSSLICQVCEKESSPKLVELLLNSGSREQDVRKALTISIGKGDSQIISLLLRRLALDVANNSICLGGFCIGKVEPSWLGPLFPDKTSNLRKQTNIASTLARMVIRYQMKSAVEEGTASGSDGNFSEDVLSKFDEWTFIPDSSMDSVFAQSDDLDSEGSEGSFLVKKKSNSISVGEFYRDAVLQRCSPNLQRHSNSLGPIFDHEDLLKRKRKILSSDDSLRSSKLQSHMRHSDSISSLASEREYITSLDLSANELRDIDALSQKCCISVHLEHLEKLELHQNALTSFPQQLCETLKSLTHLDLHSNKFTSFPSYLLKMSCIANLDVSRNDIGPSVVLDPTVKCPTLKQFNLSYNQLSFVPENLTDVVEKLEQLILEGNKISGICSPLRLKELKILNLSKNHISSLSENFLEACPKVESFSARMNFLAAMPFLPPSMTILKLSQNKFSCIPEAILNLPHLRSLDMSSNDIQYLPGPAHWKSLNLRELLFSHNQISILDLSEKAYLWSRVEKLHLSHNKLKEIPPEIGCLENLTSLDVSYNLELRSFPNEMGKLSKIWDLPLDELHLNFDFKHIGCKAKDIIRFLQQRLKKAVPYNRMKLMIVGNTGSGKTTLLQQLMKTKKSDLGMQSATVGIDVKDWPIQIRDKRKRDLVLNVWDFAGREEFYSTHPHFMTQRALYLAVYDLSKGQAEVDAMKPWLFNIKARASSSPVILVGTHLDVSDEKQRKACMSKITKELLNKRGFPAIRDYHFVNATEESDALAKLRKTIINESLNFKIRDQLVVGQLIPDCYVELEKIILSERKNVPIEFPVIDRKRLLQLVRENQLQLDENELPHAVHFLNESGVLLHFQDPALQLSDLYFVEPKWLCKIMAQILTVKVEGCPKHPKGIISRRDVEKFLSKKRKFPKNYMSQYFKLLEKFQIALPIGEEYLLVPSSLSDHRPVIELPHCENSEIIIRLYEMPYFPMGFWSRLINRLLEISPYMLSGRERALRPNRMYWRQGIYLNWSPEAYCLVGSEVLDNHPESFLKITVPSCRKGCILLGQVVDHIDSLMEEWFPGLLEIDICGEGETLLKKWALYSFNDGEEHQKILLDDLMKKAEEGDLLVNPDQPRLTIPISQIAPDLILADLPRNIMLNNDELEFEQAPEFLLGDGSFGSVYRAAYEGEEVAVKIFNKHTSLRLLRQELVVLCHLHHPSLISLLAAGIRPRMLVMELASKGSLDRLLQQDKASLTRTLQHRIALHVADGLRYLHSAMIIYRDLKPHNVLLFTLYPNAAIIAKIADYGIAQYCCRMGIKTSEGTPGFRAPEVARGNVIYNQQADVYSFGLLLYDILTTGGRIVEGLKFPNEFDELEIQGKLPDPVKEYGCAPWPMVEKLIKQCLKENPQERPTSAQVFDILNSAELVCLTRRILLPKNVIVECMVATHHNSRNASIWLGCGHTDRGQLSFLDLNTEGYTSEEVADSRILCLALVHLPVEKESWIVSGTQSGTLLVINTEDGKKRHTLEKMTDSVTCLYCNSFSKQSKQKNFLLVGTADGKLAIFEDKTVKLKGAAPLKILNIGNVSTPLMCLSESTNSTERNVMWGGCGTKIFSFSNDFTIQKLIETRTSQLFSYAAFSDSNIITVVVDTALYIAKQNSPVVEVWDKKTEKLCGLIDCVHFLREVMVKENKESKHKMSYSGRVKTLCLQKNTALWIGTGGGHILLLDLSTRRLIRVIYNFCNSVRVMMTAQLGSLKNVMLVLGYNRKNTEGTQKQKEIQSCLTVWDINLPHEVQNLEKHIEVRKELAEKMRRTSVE

Structure (SMILES)	Dmax [1]	DC50 [2]	Dmax [3]	DC50 [4]	WT LRRK2 **Dmax (%) (Table 2, maximal degradation, HiBit-tagged LRRK2 in HEK293 cells, 24 hours treatment)
Cn1c(=O)n(C2CCC(=O)NC2=O)c2ccc(N3CCC(O[C@H]4CC[C@H](CN5CCN(c6cc(-c7n[nH]c8cnc(C9(C#N)CC%10(CC%10)C9)cc78)ncn6)CC5)CC4)CC3)cc21 (single isomer, unassigned) [Compound 24, rel-5-{3-[6-(4-{[(1r,4r)-4-({1-[1-(2,6-dioxopiperidin-3-yl)-3-methyl-2-oxo-2,3-dihydro-1H-1,3-benzodiazol-5-yl]piperidin-4-yl}oxy)cyclohexyl]methyl}piperazin-1-yl)pyrimidin-4-yl]-1H-pyrazolo[3,4-c]pyridin-5-yl}spiro[2.3]hexane-5-carbonitrile]	49%	0.46 nM	–	–	–
CC(C)n1c(=O)n(C2CCC(=O)NC2=O)c2ccc(N3CCC(O[C@H]4CC[C@@H](CN5CCN(c6cc(-c7n[nH]c8cnc(OC9(C)CC9)cc78)ncn6)CC5)CC4)CC3)cc21 (single isomer, unassigned) [Compound 53, rel-3-[2-oxo-3-(propan-2-yl)-5-(4-{[(1r,4r)-4-[(4-{6-[5-(1-methylcyclopropoxy)-1H-pyrazolo[3,4-c]pyridin-3-yl]pyrimidin-4-yl}piperazin-1-yl)methyl]cyclohexyl]oxy}piperidin-1-yl)-2,3-dihydro-1H-1,3-benzodiazol-1-yl]piperidine-2,6-dione]	54%	0.59 nM	–	–	–
Cn1c(=O)n(C2CCC(=O)NC2=O)c2cccc(C#CCOC3CCN(CC4CCN(c5cc(-c6n[nH]c7ccc(OC8(C)CC8)cc67)ncn5)CC4)CC3)c21 (centres unmarked) [Compound 18, 3-{3-methyl-4-[3-({1-[(1-{6-[5-(1-methylcyclopropoxy)-1H-indazol-3-yl]pyrimidin-4-yl}piperidin-4-yl)methyl]piperidin-4-yl}oxy)prop-1-yn-1-yl]-2-oxo-2,3-dihydro-1H-1,3-benzodiazol-1-yl}piperidine-2,6-dione]	74%	3.9 nM	–	–	–
Cn1c(=O)n(C2CCC(=O)NC2=O)c2cccc(N3CCC(CN4CCN(CC5CCN(c6cc(-c7n[nH]c8cnc(OC9(C)CC9)cc78)ncn6)CC5)C(C)(C)C4)CC3)c21 (centres unmarked) [Compound 47, 3-{4-[4-({3,3-dimethyl-4-[(1-{6-[5-(1-methylcyclopropoxy)-1H-pyrazolo[3,4-c]pyridin-3-yl]pyrimidin-4-yl}piperidin-4-yl)methyl]piperazin-1-yl}methyl)piperidin-1-yl]-3-methyl-2-oxo-2,3-dihydro-1H-1,3-benzodiazol-1-yl}piperidine-2,6-dione]	100%	24 nM	–	–	–
Cc1nc2cc(N3CCC(CN4CCN(CC5CCN(c6cc(-c7n[nH]c8ccc(OC9(C)CC9)cc78)ncn6)CC5)C(C)(C)C4)CC3)ccc2n1C1CCC(=O)NC1=O (centres unmarked) [Compound 38, 3-{5-[4-({3,3-dimethyl-4-[(1-{6-[5-(1-methylcyclopropoxy)-1H-indazol-3-yl]pyrimidin-4-yl}piperidin-4-yl)methyl]piperazin-1-yl}methyl)piperidin-1-yl]-2-methyl-1H-1,3-benzodiazol-1-yl}piperidine-2,6-dione]	53%	1.2 nM	53%	1.2 nM	–
CC(C)Oc1cc2c(-c3cc(N4CCN(C[C@H]5CC[C@H](OC6CCN(c7ccc8c(c7)n(C(C)C)c(=O)n8C7CCC(=O)NC7=O)CC6)CC5)CC4)ncn3)n[nH]c2cn1 (single isomer, unassigned) [Compound 59, rel-3-[2-oxo-3-(propan-2-yl)-5-(4-{[(1r,4r)-4-[(4-{6-[5-(propan-2-yloxy)-1H-pyrazolo[3,4-c]pyridin-3-yl]pyrimidin-4-yl}piperazin-1-yl)methyl]cyclohexyl]oxy}piperidin-1-yl)-2,3-dihydro-1H-1,3-benzodiazol-1-yl]piperidine-2,6-dione]	41%	0.74 nM	–	–	–
COc1c(N2CCC(O[C@H]3CC[C@H](CN4CCN(c5cc(-c6[nH]nc7ccc(OC8(C)CC8)cc67)ncn5)CC4)CC3)CC2)ccc2c1CN(C1CCC(=O)NC1=O)C2=O (some centres unmarked) [Comparative Example 2, reference compound]	–	–	62%	3 nM	–
CC(C)n1c(=O)n(C2CCC(=O)NC2=O)c2ccc(N3CCC(O[C@H]4CC[C@H](CN5CCN(c6cc(-c7n[nH]c8ccc(OC(C)(C)C)cc78)ncn6)CC5)CC4)CC3)cc21 (single isomer, unassigned) [Compound 56, rel-3-[2-oxo-3-(propan-2-yl)-5-(4-{[(1r,4r)-4-[(4-{6-[5-(tert-butoxy)-1H-indazol-3-yl]pyrimidin-4-yl}piperazin-1-yl)methyl]cyclohexyl]oxy}piperidin-1-yl)-2,3-dihydro-1H-1,3-benzodiazol-1-yl]piperidine-2,6-dione]	43%	0.95 nM	–	–	–
CC1(Oc2ccc3[nH]nc(-c4cc(N5CCN(C[C@H]6CC[C@H](OC7CCN(c8ccc9c(ncn9C9CCC(=O)NC9=O)c8F)CC7)CC6)CC5)ncn4)c3c2)CC1 (stereo partly drawn) [Compound 45, rel-3-[4-fluoro-5-(4-{[(1r,4r)-4-[(4-{6-[5-(1-methylcyclopropoxy)-1H-indazol-3-yl]pyrimidin-4-yl}piperazin-1-yl)methyl]cyclohexyl]oxy}piperidin-1-yl)-1H-1,3-benzodiazol-1-yl]piperidine-2,6-dione]	56%	3.9 nM	56%	3.9 nM	–
CC1(Oc2ccc3[nH]nc(-c4cc(N5CCC(CN6CCN(CC7CCN(c8ccc9c(c8)ncn9C8CCC(=O)NC8=O)CC7)CC6)CC5)ncn4)c3c2)CC1 (centres unmarked) [Compound 11, 3-{5-[4-({4-[(1-{6-[5-(1-methylcyclopropoxy)-1H-indazol-3-yl]pyrimidin-4-yl}piperidin-4-yl)methyl]piperazin-1-yl}methyl)piperidin-1-yl]-1H-1,3-benzodiazol-1-yl}piperidine-2,6-dione]	62%	1.6 nM	62%	1.6 nM	–
CC(C)n1c(=O)n(C2CCC(=O)NC2=O)c2ccc(N3CCC(CN4CCN(CC5CCN(c6cc(-c7n[nH]c8cnc(OC9(C)CC9)cc78)ncn6)CC5)C(C)(C)C4)CC3)cc21 (centres unmarked) [Compound 51, 3-{5-[4-({3,3-dimethyl-4-[(1-{6-[5-(1-methylcyclopropoxy)-1H-pyrazolo[3,4-c]pyridin-3-yl]pyrimidin-4-yl}piperidin-4-yl)methyl]piperazin-1-yl}methyl)piperidin-1-yl]-2-oxo-3-(propan-2-yl)-2,3-dihydro-1H-1,3-benzodiazol-1-yl}piperidine-2,6-dione]	64%	1.1 nM	–	–	–
CC(C)n1c(=O)n(C2CCC(=O)NC2=O)c2ccc(N3CCC(OC4CCC(OC5CCN(c6cc(-c7n[nH]c8cnc(OC9(C)CC9)cc78)ncn6)CC5)CC4)CC3)cc21 (stereo not drawn) [Compound 26, rel-3-[2-oxo-3-(propan-2-yl)-5-(4-{[(1r,4r)-4-[(1-{6-[5-(1-methylcyclopropoxy)-1H-pyrazolo[3,4-c]pyridin-3-yl]pyrimidin-4-yl}piperidin-4-yl)oxy]cyclohexyl]oxy}piperidin-1-yl)-2,3-dihydro-1H-1,3-benzodiazol-1-yl]piperidine-2,6-dione]	–	1.1 nM	–	–	69%
COc1c(N2CCC(CN3CCN(CC4CCN(c5cc(-c6n[nH]c7cnc(OC8(C)CC8)cc67)ncn5)CC4)C(C)(C)C3)CC2)ccc2c1CN(C1CCC(=O)NC1=O)C2=O (centres unmarked) [Comparative Example 6, reference compound]	–	–	68%	1.7 nM	–
